Assay results: patent US20240285566A1, “SUBCUTANEOUS FORMULATION AND METHODS FOR TREATING EDEMA REFRACTORY TO ORAL DIURETICS” (RESQ Pharmaceuticals LLC, priority 2021, published 2024)

How the values were obtained:
[1] = Solubility of bumetanide free acid in water with and without tetradecyl-β-D-maltoside (HPLC); assay type: physicochemical
Protocol: Bumetanide, 10 mg, in its free acid form was added to 1 mL of deionized water and mixed using a vortex and sonicator. The solution was filtered using a 0.22 μm nylon syringe filter. To 900 μL deionized water, 100 μL of the filtered bumetanide solution was added before being characterized for the concentration of the bumetanide in solution using HPLC. The concentration of bumetanide was determined using a standard curve generated by bumetanide solutions of known concentrations. […] Therefore, to the 10 mg of bumetanide, 1 mL of deionized water containing 1.0%, 0.5% or 0.1% of the surfactant tetradecyl-β-D-maltoside. The bumetanide was then solubilized using a vortex and sonicator, after which it was filtered using a 0.22 μm nylon syringe filter. To 900 μL deionized water, 100 μL of the filtered bumetanide solution was added before being characterized for the concentration of the bumetanide in solution using HPLC. The resulting bumetanide concentrations are recorded in Table 1.

in vivo = assay: in vivo; set-up: species or system beagle dogs; conditions: dog
Protocol: The purpose of this study was to assess the pharmacokinetic profiles of various formulations of bumetanide, including arginine bumetanide salts (FS-5 and FS-6) and potassium bumetanide salts (FS-3 and FS-4) for subcutaneous administration, and an bumetanide intranasal formulation (F82), which are described in Table 60, when each formulation is administered as a single subcutaneous, or intranasal in different vehicles when compared to single IV administration dose in male and female beagle dogs.
A total of four dogs were assigned to the study (3 males, 9-13 kg and 1 female, 7-10 kg) ranging from 1 to 3 years old.
The study was conducted in 6 Events in the same animals, separated by at least 48 hours or more washout period between events.
For subcutaneous administration the bumetanide formulations were injected subcutaneously (100 μL/dog), using a 25G hypodermic needle. After each application, successful dosing was verified by visual inspection of the dog injection site and after 1 minute of dosing. Only successful administrations will be accepted.
For intranasal administration, each dog was held in an upright position with the nose pointing up. The test article (50 μL) was delivered into each nostril (total 100 μL/dog). The nose was held pointing up for ˜60 seconds after dosing. After each application, successful dosing was verified by visual inspection of the pipette tip and the dog nostril.
For intravenous administration, the commercially available injection of bumetanide (Walgreens, 0.25 mg/mL) was used and administered via the cephalic vein over a period of 30 seconds (4.0 mL/dog, IV).
Body weights of the dogs were measured for each dog prior to each dose on the day of dose, and approximately 48 hours post-dose for each event. For some events, the 48 hour post-dose weight was the same weight as the pre-dose weight for the following dose. Urine production was also monitored post-dose to assess diuresis by making observations at 30 minutes, 1, 2, 3 and 4 hours post-dose. Urine volume was not measured. On each day of dosing, blood (˜600 μL/timepoint, jugular or cephalic vein) were collected in red top tubes with clotting activator (Sarstedt, Inc-41.1392.105 or similar) to obtain serum at the times described in Table 61. Blood was centrifuged at 5000×g for 10 minutes at 4° C. If the samples were collected outside the collection window, they were not be considered a protocol deviation. Serum was divided into 2 aliquots of ˜150 μL each and stored frozen at −20° C. until it was shipped to Climax Laboratories, Inc. on dry ice.

[2] = Stability of arginine and potassium bumetanide salts over four weeks; assay type: physicochemical; conditions: for stability of the salt solution: at either 5° C. or 25° C.
Protocol: The stability of the arginine and potassium bumetanide salts was monitored over a four week period with storage at either 2-8° C. or 25° C. for that time period. The bumetanide salt solutions were evaluated on the basis of pH, concentration of bumetanide in solution, the percent assay recovery and the presence of an impurity (see Tables 17 and 18).

| Compound | Assay ([2]; 1 week at 5° C.) [mg/mL] | pH ([2]; 1 week at 5° C.) | Assay ([2]; 1 week at 25° C.) [mg/mL] | pH ([2]; 1 week at 25° C.) | Assay ([2]; 2 weeks at 5° C.) [mg/mL] | pH ([2]; 2 weeks at 5° C.) | Assay ([2]; 2 weeks at 25° C.) [mg/mL] | pH ([2]; 2 weeks at 25° C.) | Assay ([2]; 4 weeks at 5° C.) [mg/mL] | pH ([2]; 4 weeks at 5° C.) | Assay ([2]; 4 weeks at 25° C.) [mg/mL] | pH ([2]; 4 weeks at 25° C.) | Assay ([2]; T0) [mg/mL] | Osmolality ([2]; T0) [mOsm/kg] | Viscosity ([2]; T0) [cP] | pH ([2]; T0) | stability of the salt solution [2] | other results |
| --- | --- | --- | --- | --- | --- | --- | --- | --- | --- | --- | --- | --- | --- | --- | --- | --- | --- | --- |
| CCCCNc1cc(C(=O)O)cc(S(N)(=O)=O)c1Oc1ccccc1 [Bumetanide] |  |  |  |  |  |  |  |  |  |  |  |  |  |  |  |  |  | solubility in water ([1]; free acid form, deionized water, no surfactant): Nearly no bumetanide in the free acid form was soluble water; solubility in water ([1]; not in a salt form, in the presence of surfactant): incredibly low solubility in water; AUC (in vivo; beagle, iv, 1 mg): 140 ng·h/mL; AUC (in vivo; beagle, iv, 1 mg, AUC (ng*h/mL)): 140 ng·h/mL; AUC (in vivo; both sexes, beagle, iv, 1 mg): 185 ng·h/mL; AUC(0-t) (in vivo; both sexes, beagle, iv, 1 mg): 185 ng·h/mL; AUC (in vivo; both sexes, beagle, iv, 1 mg, AUC (ng*h/mL)): 185 ng·h/mL |
| CCCCNc1cc(C(=O)O)cc(S(N)(=O)=O)c1Oc1ccccc1.N=C(N)NCCCC(N)C(=O)O [arginine bumetanide salt] | 5.08 | 7.0 | 5.06 | 7.1 | 4.99 | 7.0 | 4.97 | 7.0 | 4.89 | 7.0 | 4.97 | 7.1 | 5.07 | 335 | 1.3 | 7.0 | stable for up to four weeks | impurity by HPLC ([2]; initially or after four weeks, 5° C. and 25° C.): no impurity was detected |
| CCCCNc1cc(C(=O)[O-])cc(S(N)(=O)=O)c1Oc1ccccc1.[K+] [potassium bumetanide salt] | 5.18 | 7.0 | 5.10 | 7.0 | 4.97 | 7.0 | 4.96 | 7.1 | 5.00 | 7.0 | 5.03 | 7.1 | 5.10 | 317 | 1.3 | 7.0 | stable for up to four weeks | serum concentrations compared to IV administration of bumetanide (in vivo): higher serum concentrations |
